Reference: US20220194911A1, “NOVEL COMPOUND FOR INHIBITING HISTONE ACETYLTRANSFERASE P300 AND ANTIFIBROTIC COMPOSITION COMPRISING SAME” (REFURE LIFE SCIENCE INC., priority 2019, published 2022)

Biological target: HAT p300 (histone acetyltransferase p300) (Homo sapiens, UniProt Q09472)
Experiment: HAT activity kit assay (Biovision K332), inhibition of HAT activity of p300
Assay type: biochemical
Details: for HAT p300 activity inhibitory effect: diluted to 100 μM, FIG. 9
Method: Candidates 1 to 67, which are HAT inhibitors manufactured based on the PCAF structure, and HAT-24, HAT-26, and HAT-28 were diluted to 100 μM, and the degree of inhibition of HAT activity of p300 (inhibitory activity) was then determined using a kit for measuring HAT activity (Biovision, Cat No. K332, U.S.A) according to the method provided by the manufacturer. Here, the tissue was treated with C646 (HAT inhibitor) as a positive control.
Candidates 1 to 14 having a good HAT activity inhibitory effect in Section were diluted to concentrations of 0.5 μM, 1 μM, 10 μM, and 100 μM. Thereafter, the degree of inhibition of HAT activity was determined in the same manner as in Section.
Synthesis Examples 1 to 19 were diluted to 100 μM, and the degree of inhibition of HAT p300 activity was then determined in the same manner as in Section. Here, the tissues were treated with C646 and Candidate 12 (HAT-12) as the control, instead of Synthesis Examples 1 to 19.

HAT p300 (histone acetyltransferase p300), sequence (Q09472 whole entry): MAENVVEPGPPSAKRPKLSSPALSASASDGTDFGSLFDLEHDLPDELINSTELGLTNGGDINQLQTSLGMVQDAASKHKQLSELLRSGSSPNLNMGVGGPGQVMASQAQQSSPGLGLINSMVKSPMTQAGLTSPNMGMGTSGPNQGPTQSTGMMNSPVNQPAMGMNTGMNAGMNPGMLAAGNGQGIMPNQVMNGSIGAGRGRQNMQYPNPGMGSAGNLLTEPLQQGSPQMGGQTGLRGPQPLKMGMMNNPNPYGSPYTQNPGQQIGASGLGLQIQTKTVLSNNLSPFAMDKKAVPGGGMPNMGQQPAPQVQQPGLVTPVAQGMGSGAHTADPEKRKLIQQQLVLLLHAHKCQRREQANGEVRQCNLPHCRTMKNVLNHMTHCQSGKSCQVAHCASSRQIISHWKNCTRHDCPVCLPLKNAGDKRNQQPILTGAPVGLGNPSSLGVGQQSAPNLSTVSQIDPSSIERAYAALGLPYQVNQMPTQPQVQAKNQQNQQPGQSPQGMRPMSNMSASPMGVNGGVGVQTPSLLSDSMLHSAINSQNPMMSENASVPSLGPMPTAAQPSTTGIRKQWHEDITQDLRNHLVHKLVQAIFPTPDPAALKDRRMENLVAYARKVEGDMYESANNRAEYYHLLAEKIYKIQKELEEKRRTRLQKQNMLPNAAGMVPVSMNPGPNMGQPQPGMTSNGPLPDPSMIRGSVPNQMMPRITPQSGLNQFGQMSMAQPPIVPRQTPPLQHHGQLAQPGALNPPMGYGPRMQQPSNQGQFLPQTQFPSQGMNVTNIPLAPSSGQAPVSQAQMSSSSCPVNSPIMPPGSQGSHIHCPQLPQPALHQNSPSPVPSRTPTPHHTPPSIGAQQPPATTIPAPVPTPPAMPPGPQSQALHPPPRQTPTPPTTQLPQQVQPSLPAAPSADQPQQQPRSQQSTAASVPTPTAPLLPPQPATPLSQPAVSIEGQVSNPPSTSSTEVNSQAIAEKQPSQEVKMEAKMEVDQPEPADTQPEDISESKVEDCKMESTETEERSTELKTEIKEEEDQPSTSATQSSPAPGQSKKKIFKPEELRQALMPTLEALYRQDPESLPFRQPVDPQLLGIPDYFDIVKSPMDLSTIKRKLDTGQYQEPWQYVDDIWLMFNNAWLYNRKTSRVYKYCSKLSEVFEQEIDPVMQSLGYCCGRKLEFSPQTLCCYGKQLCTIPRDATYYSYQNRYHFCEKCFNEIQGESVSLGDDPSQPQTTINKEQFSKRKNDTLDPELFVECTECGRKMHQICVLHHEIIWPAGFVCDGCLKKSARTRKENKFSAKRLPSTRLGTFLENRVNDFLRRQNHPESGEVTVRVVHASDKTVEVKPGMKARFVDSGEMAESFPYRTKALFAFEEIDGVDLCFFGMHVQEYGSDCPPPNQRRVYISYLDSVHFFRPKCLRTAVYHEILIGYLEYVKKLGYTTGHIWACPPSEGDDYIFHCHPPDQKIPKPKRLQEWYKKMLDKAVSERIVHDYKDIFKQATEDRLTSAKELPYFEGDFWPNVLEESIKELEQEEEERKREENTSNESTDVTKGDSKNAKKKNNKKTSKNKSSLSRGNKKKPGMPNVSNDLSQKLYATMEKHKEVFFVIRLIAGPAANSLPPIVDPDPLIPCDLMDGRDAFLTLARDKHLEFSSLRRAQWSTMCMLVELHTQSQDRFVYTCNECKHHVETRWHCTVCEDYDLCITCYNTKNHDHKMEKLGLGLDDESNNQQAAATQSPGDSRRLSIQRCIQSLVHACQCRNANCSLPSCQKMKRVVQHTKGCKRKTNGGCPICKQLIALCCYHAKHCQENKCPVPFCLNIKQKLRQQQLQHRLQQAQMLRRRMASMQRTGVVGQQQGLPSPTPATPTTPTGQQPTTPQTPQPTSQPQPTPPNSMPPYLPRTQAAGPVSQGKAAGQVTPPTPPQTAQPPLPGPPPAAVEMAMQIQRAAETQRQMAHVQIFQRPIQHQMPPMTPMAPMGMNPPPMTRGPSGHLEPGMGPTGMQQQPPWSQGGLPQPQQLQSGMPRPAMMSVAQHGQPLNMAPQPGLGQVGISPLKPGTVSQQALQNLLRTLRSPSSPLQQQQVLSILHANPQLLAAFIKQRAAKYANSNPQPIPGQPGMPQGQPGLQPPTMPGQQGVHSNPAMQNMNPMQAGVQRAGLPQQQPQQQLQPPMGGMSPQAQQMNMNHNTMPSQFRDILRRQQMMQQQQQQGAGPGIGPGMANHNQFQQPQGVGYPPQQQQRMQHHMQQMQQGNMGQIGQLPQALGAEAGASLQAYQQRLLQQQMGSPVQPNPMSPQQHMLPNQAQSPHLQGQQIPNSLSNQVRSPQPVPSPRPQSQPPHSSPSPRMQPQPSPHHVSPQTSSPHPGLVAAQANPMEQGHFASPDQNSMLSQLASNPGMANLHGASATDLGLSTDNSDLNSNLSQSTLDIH

| HAT p300 activity inhibitory effect | IC50 (secondary screening, tested at 0.5, 1, 10 and 100 μM) [µM] | SMILES |
| --- | --- | --- |
| approximately 80% | 0.953 | COc1cc(/C=N/CCN2CCCCC2)cc(Cl)c1OCc1cccc(Cl)c1 [Candidate 12] |
| ≥ 90% |  | COc1cc(/C=N/Cc2ccc(C(=O)O)cc2)cc(Cl)c1OCc1cccc(Cl)c1 [Synthesis Example 19, (E)-4-(((3-chloro-4-((3-chlorobenzyl)oxy)-5-methoxybenzylidene)amino)methyl)benzoic acid] |
